Measured values: ChEMBL document CHEMBL4004849, “Tetrazolylmethyl quinolines: Design, docking studies, synthesis, anticancer and antifungal analyses” (2017)
≈ marks a conversion by molar mass, not a printed value. Calls of active or inactive are those of the source. The calls are words filed in the database; no cut-off is given here.

Tests used:
Type in all cases: functional
NCI-H522 = test: Growth inhibition of human NCI-H522 cells at 10^-5 M incubated for 48 hrs by sulforhodamine B assay relative to control
OVCAR-8 = test: Growth inhibition of human OVCAR8 cells at 10^-5 M incubated for 48 hrs by sulforhodamine B assay relative to control
KM12 = test: Growth inhibition of human KM12 cells at 10^-5 M incubated for 48 hrs by sulforhodamine B assay relative to control
MDA-MB-435 = test: Growth inhibition of human MDA-MB-435 cells at 10^-5 M incubated for 48 hrs by sulforhodamine B assay relative to control
SK-OV-3 = test: Growth inhibition of human SKOV3 cells at 10^-5 M incubated for 48 hrs by sulforhodamine B assay relative to control
OVCAR-5 = test: Growth inhibition of human OVCAR5 cells at 10^-5 M incubated for 48 hrs by sulforhodamine B assay relative to control
UACC-257 = test: Growth inhibition of human UACC257 cells at 10^-5 M incubated for 48 hrs by sulforhodamine B assay relative to control
UO-31 = test: Growth inhibition of human UO31 cells at 10^-5 M incubated for 48 hrs by sulforhodamine B assay relative to control
SW-620 = test: Growth inhibition of human SW620 cells at 10^-5 M incubated for 48 hrs by sulforhodamine B assay relative to control
M14 = test: Growth inhibition of human M14 cells at 10^-5 M incubated for 48 hrs by sulforhodamine B assay relative to control
Malme-3M = test: Growth inhibition of human MALME-3M cells at 10^-5 M incubated for 48 hrs by sulforhodamine B assay relative to control
SR = test: Growth inhibition of human SR cells at 10^-5 M incubated for 48 hrs by sulforhodamine B assay relative to control
IGROV-1 = test: Growth inhibition of human IGROV1 cells at 10^-5 M incubated for 48 hrs by sulforhodamine B assay relative to control
HCT-116 = test: Growth inhibition of human HCT116 cells at 10^-5 M incubated for 48 hrs by sulforhodamine B assay relative to control
K562 = test: Growth inhibition of human K562 cells at 10^-5 M incubated for 48 hrs by sulforhodamine B assay relative to control
OVCAR-3 = test: Growth inhibition of human OVCAR3 cells at 10^-5 M incubated for 48 hrs by sulforhodamine B assay relative to control
SK-MEL-28 = test: Growth inhibition of human SK-MEL-28 cells at 10^-5 M incubated for 48 hrs by sulforhodamine B assay relative to control
Candida albicans = test: Antifungal activity against Candida albicans at 100 ug/ml by disc diffusion method; conditions: read-out: IZ
OVCAR-4 = test: Growth inhibition of human OVCAR4 cells at 10^-5 M incubated for 48 hrs by sulforhodamine B assay relative to control
NCI-H460 = test: Growth inhibition of human NCI-H460 cells at 10^-5 M incubated for 48 hrs by sulforhodamine B assay relative to control
NCI-H23 = test: Growth inhibition of human NCI-H23 cells at 10^-5 M incubated for 48 hrs by sulforhodamine B assay relative to control
RXF 393 = test: Growth inhibition of human RXF393 cells at 10^-5 M incubated for 48 hrs by sulforhodamine B assay relative to control
CAKI-1 = test: Growth inhibition of human Caki1 cells at 10^-5 M incubated for 48 hrs by sulforhodamine B assay relative to control
NCI-H226 = test: Growth inhibition of human NCI-H226 cells at 10^-5 M incubated for 48 hrs by sulforhodamine B assay relative to control
SNB-19 = test: Growth inhibition of human SNB19 cells at 10^-5 M incubated for 48 hrs by sulforhodamine B assay relative to control
ACHN = test: Growth inhibition of human ACHN cells at 10^-5 M incubated for 48 hrs by sulforhodamine B assay relative to control
UACC-62 = test: Growth inhibition of human UACC62 cells at 10^-5 M incubated for 48 hrs by sulforhodamine B assay relative to control
SK-MEL-5 = test: Growth inhibition of human SK-MEL-5 cells at 10^-5 M incubated for 48 hrs by sulforhodamine B assay relative to control
SF-539 = test: Growth inhibition of human SF539 cells at 10^-5 M incubated for 48 hrs by sulforhodamine B assay relative to control
COLO 205 = test: Growth inhibition of human COLO205 cells at 10^-5 M incubated for 48 hrs by sulforhodamine B assay relative to control
MCF7 = test: Growth inhibition of human MCF7 cells at 10^-5 M incubated for 48 hrs by sulforhodamine B assay relative to control
Aspergillus fumigatus [1] = test: Antifungal activity against Aspergillus fumigatus after 24 hrs by serial dilution method
U-251 = test: Growth inhibition of human U251 cells at 10^-5 M incubated for 48 hrs by sulforhodamine B assay relative to control
A549 = test: Growth inhibition of human A549/ATCC cells at 10^-5 M incubated for 48 hrs by sulforhodamine B assay relative to control
SF-295 = test: Growth inhibition of human SF295 cells at 10^-5 M incubated for 48 hrs by sulforhodamine B assay relative to control
SF-268 = test: Growth inhibition of human SF268 cells at 10^-5 M incubated for 48 hrs by sulforhodamine B assay relative to control
MDA-MB-468 = test: Growth inhibition of human MDA-MB-468 cells at 10^-5 M incubated for 48 hrs by sulforhodamine B assay relative to control
HCC 2998 = test: Growth inhibition of human HCC2998 cells at 10^-5 M incubated for 48 hrs by sulforhodamine B assay relative to control
Aspergillus fumigatus [2] = test: Antifungal activity against Aspergillus fumigatus at 100 ug/ml by disc diffusion method; conditions: read-out: IZ
MDA-MB-231 = test: Growth inhibition of human MDA-MB-231/ATCC cells at 10^-5 M incubated for 48 hrs by sulforhodamine B assay relative to control
MOLT-4 = test: Growth inhibition of human MOLT4 cells at 10^-5 M incubated for 48 hrs by sulforhodamine B assay relative to control
Hs-578T = test: Growth inhibition of human Hs 578T cells at 10^-5 M incubated for 48 hrs by sulforhodamine B assay relative to control
HT-29 = test: Growth inhibition of human HT-29 cells at 10^-5 M incubated for 48 hrs by sulforhodamine B assay relative to control
BT-549 = test: Growth inhibition of human BT549 cells at 10^-5 M incubated for 48 hrs by sulforhodamine B assay relative to control

Fc1ccc2nc(Cl)c(Cn3nnc(Cc4ccccc4)n3)cc2c1
growth inhibition (GI) (NCI-H522): Active | growth inhibition (GI) (OVCAR-8): Active | growth inhibition (GI) (KM12): Active | growth inhibition (GI) (MDA-MB-435): Active | growth inhibition (GI) (SK-OV-3): Active | growth inhibition (GI) (OVCAR-5): Active | growth inhibition (GI) (UACC-257): Active | growth inhibition (GI) (UO-31): Active | growth inhibition (GI) (SW-620): Active | growth inhibition (GI) (M14): Active | growth inhibition (GI) (Malme-3M): Active | growth inhibition (GI) (SR): Active | growth inhibition (GI) (IGROV-1): Active | growth inhibition (GI) (HCT-116): Active | growth inhibition (GI) (K562): Active | growth inhibition (GI) (OVCAR-3): Active | growth inhibition (GI) (SK-MEL-28): Active | zone of inhibition at 100 µg/mL (Candida albicans): 12 mm | growth inhibition (GI) (OVCAR-4): Active | growth inhibition (GI) (NCI-H460): Active | growth inhibition (GI) (NCI-H23): Active | growth inhibition (GI) (RXF 393): Active | growth inhibition (GI) (CAKI-1): Active | growth inhibition (GI) (NCI-H226): Active | growth inhibition (GI) (SNB-19): Active | growth inhibition (GI) (ACHN): Active | growth inhibition (GI) (UACC-62): Active | growth inhibition (GI) (SK-MEL-5): Active | growth inhibition (GI) (SF-539): Active | growth inhibition (GI) (COLO 205): Active | growth inhibition (GI) (MCF7): Active | MIC (Aspergillus fumigatus [1]): 25 µg/mL (≈ 70.7 µM) | growth inhibition (GI) (U-251): Active | growth inhibition (GI) (A549): Active | growth inhibition (GI) (SF-295): Active | growth inhibition (GI) (SF-268): Active | growth inhibition (GI) (MDA-MB-468): Active | growth inhibition (GI) (HCC 2998): Active | zone of inhibition at 100 µg/mL (Aspergillus fumigatus [2]): 15 mm | growth inhibition (GI) (MDA-MB-231): Active | growth inhibition (GI) (MOLT-4): Active | growth inhibition (GI) (Hs-578T): Active | growth inhibition (GI) (HT-29): Active | growth inhibition (GI) (BT-549): Active

Cc1ccc2nc(Cl)c(Cn3nnc(CSc4ccccc4)n3)cc2c1
growth inhibition (GI) (NCI-H522): Active | growth inhibition (GI) (OVCAR-8): Active | growth inhibition (GI) (KM12): Active | growth inhibition (GI) (MDA-MB-435): Active | growth inhibition (GI) (SK-OV-3): Active | growth inhibition (GI) (OVCAR-5): Active | growth inhibition (GI) (UACC-257): Active | growth inhibition (GI) (UO-31): Active | growth inhibition (GI) (SW-620): Active | growth inhibition (GI) (M14): Active | growth inhibition (GI) (Malme-3M): Active | growth inhibition (GI) (SR): Active | growth inhibition (GI) (IGROV-1): Active | growth inhibition (GI) (HCT-116): Active | growth inhibition (GI) (K562): Active | growth inhibition (GI) (OVCAR-3): Active | growth inhibition (GI) (SK-MEL-28): Active | zone of inhibition at 100 µg/mL (Candida albicans): 12 mm | growth inhibition (GI) (OVCAR-4): Active | growth inhibition (GI) (NCI-H460): Active | growth inhibition (GI) (NCI-H23): Active | growth inhibition (GI) (RXF 393): Active | growth inhibition (GI) (CAKI-1): Active | growth inhibition (GI) (NCI-H226): Active | growth inhibition (GI) (SNB-19): Active | growth inhibition (GI) (ACHN): Active | growth inhibition (GI) (UACC-62): Active | growth inhibition (GI) (SK-MEL-5): Active | growth inhibition (GI) (SF-539): Active | growth inhibition (GI) (COLO 205): Active | growth inhibition (GI) (MCF7): Active | MIC (Aspergillus fumigatus [1]): 25 µg/mL (≈ 65.5 µM) | growth inhibition (GI) (U-251): Active | growth inhibition (GI) (A549): Active | growth inhibition (GI) (SF-295): Active | growth inhibition (GI) (SF-268): Active | growth inhibition (GI) (MDA-MB-468): Active | growth inhibition (GI) (HCC 2998): Active | zone of inhibition at 100 µg/mL (Aspergillus fumigatus [2]): 18 mm | growth inhibition (GI) (MDA-MB-231): Active | growth inhibition (GI) (MOLT-4): Active | growth inhibition (GI) (Hs-578T): Active | growth inhibition (GI) (HT-29): Active | growth inhibition (GI) (BT-549): Active
